For data set [1], the system named is MV4;11 cell line. Description: MV4;11 inhibition. The class given is cell-based.
Data set [2] concerns RS4;11 cells. Description: RS4;11 cell viability, CCK-8 assay. The class given is cell-based. The note with it: Homo sapiens, RS4-11, 96 h, CCK-8, 4 days, read-out: RS4, 11 IC50 (Bcl-2 dependent). How it is done:
RS4;11 cells were obtained from American Type Culture Collection (ATCC). They were used within three months of thawing fresh vials. Cells were maintained in the recommended culture medium with 10% FBS at 37° C. and an atmosphere of 5% CO2.
The effect of representative Compounds of the Disclosure on cell viability was determined using Cell Counting Kit-8 (CCK-8) assay (Dojindo, Rockville, Md.) according to the manufacturer's instructions. 200 μL of a RS4;11 cell suspension (10000 cells/well) in culture medium were seeded into 96-well plates and cultured overnight. Each tested compound was serially diluted in culture medium, and 20 μL of the compound dilution was added to the corresponding well of the cell plate. After the addition of the tested compound, the cells were incubated at 37° C. in an atmosphere of 5% CO2 for 4 days. At the end of 4 days, 10 μL of CCK-8 solution was added to each well of the plate and incubated for 1-4 hours. The plates were read at 450 nm on the microplate spectrophotometer (Epoch2, BioTek). The readings were normalized to the vehicle cells, and the IC50 was calculated by nonlinear regression analysis using GraphPad Prism 5 software.

The nature of data set [3]: Pharmacokinetics in rats. The class given is in vivo. The protocol: The pharmacokinetics of ABT-199 and representative Compounds of the Disclosure were evaluated in rats at an IV dose of 2 mg/kg and an oral dose of 20 mg/kg.

Where two headings read alike, the source gives them in different places.

As for `O=C(NS(=O)(=O)c1ccc(NCC2CCOCC2)c([N+](=O)[O-])c1)c1ccc(N2CCN(CC3=C(c4ccc(Cl)cc4)CC4(CCC4)CC3)CC2)c(F)c1Oc1cnc2[nH]ccc2c1` [compound 42, 2-((1H-pyrrolo[2,3-b]pyridin-5-yl)oxy)-4-(4-((6-(4-chlorophenyl)spiro[3.5]non-6-en-7-yl)methyl)piperazin-1-yl)-3-fluoro-N-((3-nitro-4-(((tetrahydro-2H-pyran-4-yl)methyl)amino)phenyl)sulfonyl)benzamide], the 50% inhibitory concentration (IC50) in data set [1] (Homo sapiens, MV4-11) amounted to 0.0881 µM; in data set [2] it was 0.111 µM.

Take `O=C(NS(=O)(=O)c1cc([N+](=O)[O-])c(NC[C@H]2COCCO2)cc1F)c1ccc(N2CCN(CC3=C(c4ccc(Cl)cc4)CC4(CCC4)CC3)CC2)cc1Oc1cnc2[nH]ccc2c1` [Cpd. No. 44, (S)-N-((4-(((1,4-dioxan-2-yl)methyl)amino)-2-fluoro-5-nitrophenyl)sulfonyl)-2-((1H-pyrrolo[2,3-b]pyridin-5-yl)oxy)-4-(4-((6-(4-chlorophenyl)spiro[3.5]non-6-en-7-yl)methyl)piperazin-1-yl)benzamide]: the 50% inhibitory concentration (IC50) in data set [2] amounted to 7.16 µM.

As to `O=C(NS(=O)(=O)c1ccc(NC[C@H]2COCCO2)c([N+](=O)[O-])c1)c1ccc(N2CCN(CC3=C(c4ccc(Cl)cc4)CC4(CCC4)CC3)CC2)c(F)c1Oc1cnc2[nH]ccc2c1` [compound 36, (S)-N-((4-(((1,4-dioxan-2-yl)methyl)amino)-3-nitrophenyl)sulfonyl)-2-((1H-pyrrolo[2,3-b]pyridin-5-yl)oxy)-4-(4-((6-(4-chlorophenyl)spiro[3.5]non-6-en-7-yl)methyl)piperazin-1-yl)-3-fluorobenzamide], the 50% inhibitory concentration (IC50) was 0.0444 µM in data set [1] (Homo sapiens, MV4-11) and 0.013 µM in data set [2].

For the compound `O=C(NS(=O)(=O)C1=CC2C(=O)N(CC3CCOCC3)CC2C([N+](=O)[O-])=C1)c1ccc(N2CCN(CC3=C(c4ccc(Cl)cc4)CC4(CCC4)CC3)CC2)cc1Oc1cnc2[nH]ccc2c1` (stereo not shown) [compound 38, 2-((1H-pyrrolo[2,3-b]pyridin-5-yl)oxy)-4-(4-((6-(4-chlorophenyl)spiro[3.5]non-6-en-7-yl)methyl)piperazin-1-yl)-N-((7-nitro-3-oxo-2-((tetrahydro-2H-pyran-4-yl)methyl)-2,3,3a,7a-tetrahydro-1H-isoindol-5-yl)sulfonyl)benzamide], the half-inhibitory concentration (IC50) in data set [1] (Homo sapiens, MV4-11) turned out to be 0.103 µM; in data set [2], 0.066 µM.

For `O=C(NS(=O)(=O)c1cc([N+](=O)[O-])n(CCC2CCOCC2)c1)c1ccc(N2CCN(CC3=C(c4ccc(Cl)cc4)CC4(CCC4)CC3)CC2)cc1Oc1cnc2[nH]ccc2c1` [compound 24, 2-((1H-pyrrolo[2,3-b]pyridin-5-yl)oxy)-4-(4-((6-(4-chlorophenyl)spiro[3.5]non-6-en-7-yl)methyl)piperazin-1-yl)-N-((5-nitro-1-(2-(tetrahydro-2H-pyran-4-yl)ethyl)-1H-pyrrol-3-yl)sulfonyl)benzamide], in data set [1] (Homo sapiens, MV4-11), the concentration for half-maximal inhibition (IC50) was 243 µM.

For the compound `O=C(NS(=O)(=O)c1ccc(NCC2CCOCC2)c([N+](=O)[O-])c1)c1ccc(C2=CCN(CC3=C(c4ccc(Cl)cc4)CC4(CC3)COC4)CC2)cc1Oc1cnc2[nH]ccc2c1` [compound 9, 2-((1H-pyrrolo[2,3-b]pyridin-5-yl)oxy)-4-(1-((6-(4-chlorophenyl)-2-oxaspiro[3.5]non-6-en-7-yl)methyl)-1,2,3,6-tetrahydropyridin-4-yl)-N-((3-nitro-4-(((tetrahydro-2H-pyran-4-yl)methyl)amino)phenyl)sulfonyl)benzamide], the IC50 in data set [2] was 0.028 µM.

As to `O=C(NS(=O)(=O)c1cc([N+](=O)[O-])c2[nH]c(-c3ccncc3)nc2c1)c1ccc(N2CCN(CC3=C(c4ccc(Cl)cc4)CC4(CCC4)CC3)CC2)cc1Oc1cnc2[nH]ccc2c1` [compound 66, 2-((1H-pyrrolo[2,3-b]pyridin-5-yl)oxy)-4-(4-((6-(4-chlorophenyl)spiro[3.5]non-6-en-7 yl)methyl)piperazin-1-yl)-N-((7-nitro-2-(pyridin-4-yl)-1H-benzo[d]imidazol-5-yl)sulfonyl)benzamide], the half-maximal inhibitory concentration (IC50) is above 1000 µM in data set [1] (Homo sapiens, MV4-11) and 0.243 µM in data set [2].

Take `COCCOCCNc1ccc(S(=O)(=O)NC(=O)c2ccc(N3CCN(CC4=C(c5ccc(Cl)cc5)CC5(CCC5)CC4)CC3)c(F)c2Oc2cnc3[nH]ccc3c2)cc1[N+](=O)[O-]` [compound 43, 2-((1H-pyrrolo[2,3-b]pyridin-5-yl)oxy)-4-(4-((6-(4-chlorophenyl)spiro[3.5]non-6-en-7-yl)methyl)piperazin-1-yl)-3-fluoro-N-((4-((2-(2-methoxyethoxy)ethyl)amino)-3-nitrophenyl)sulfonyl)benzamide]: the concentration for half-maximal inhibition (IC50) was determined as 0.126 µM in data set [1] (Homo sapiens, MV4-11) and 0.08 µM in data set [2].

On to `O=C(NS(=O)(=O)c1ccc(NC[C@@H]2COCCO2)c([N+](=O)[O-])c1)c1ccc(N2CCN(CC3=C(c4ccc(Cl)cc4)CC4(CCC4)CC3)CC2)cc1Oc1cnc2[nH]ccc2c1` [compound 13, (R)-N-((4-(((1,4-dioxan-2-yl)methyl)amino)-3-nitrophenyl)sulfonyl)-2-((1H-pyrrolo[2,3-b]pyridin-5-yl)oxy)-4-(4-((6-(4-chlorophenyl)spiro[3.5]non-6-en-7-yl)methyl)piperazin-1-yl)benzamide], for which the IC50 in data set [2] was 0.0028 µM.

`O=C(NS(=O)(=O)c1cc(F)c(NCC2CCOCC2)c([N+](=O)[O-])c1)c1ccc(N2CCN(CC3=C(c4ccc(Cl)cc4)CC4(CCC4)CC3)CC2)cc1Oc1cnc2[nH]ccc2c1` [compound 29, 2-((1H-pyrrolo[2,3-b]pyridin-5-yl)oxy)-4-(4-((6-(4-chlorophenyl)spiro[3.5]non-6-en-7-yl)methyl)piperazin-1-yl)-N-((3-fluoro-5-nitro-4-(((tetrahydro-2H-pyran-4-yl)methyl)amino)phenyl)sulfonyl)benzamide]: the IC50 in data set [1] (Homo sapiens, MV4-11) worked out at 0.0482 µM; in data set [2] it was 0.012 µM.

`O=C(NS(=O)(=O)c1ccc(NC[C@H]2COCCO2)c([N+](=O)[O-])c1)c1cc(F)c(N2CCN(CC3=C(c4ccc(Cl)cc4)CC4(CCC4)CC3)CC2)cc1Oc1cnc2[nH]ccc2c1` [compound 26, (S)-N-((4-(((1,4-dioxan-2-yl)methyl)amino)-3-nitrophenyl)sulfonyl)-2-((1H-pyrrolo[2,3-b]pyridin-5-yl)oxy)-4-(4-((6-(4-chlorophenyl)spiro[3.5]non-6-en-7-yl)methyl)piperazin-1-yl)-5-fluorobenzamide]: the half-maximal inhibitory concentration (IC50) in data set [1] was determined as 6.71 µM.

As for `O=C(NS(=O)(=O)c1ccc(NC[C@@H]2COCCO2)c([N+](=O)[O-])c1)c1ccc(N2CCN(CC3=C(c4ccc(Cl)cc4)CC4(CC3)COC4)CC2)cc1Oc1cnc2[nH]ccc2c1` [compound 8, (R)-N-((4-(((1,4-dioxan-2-yl)methyl)amino)-3-nitrophenyl)sulfonyl)-2-((1H-pyrrolo[2,3-b]pyridin-5-yl)oxy)-4-(4-((6-(4-chlorophenyl)-2-oxaspiro[3.5]non-6-en-7-yl)methyl)piperazin-1-yl)benzamide], in data set [2], the IC50 was found to be 0.0037 µM.

As for `O=C(NS(=O)(=O)c1ccc(NC[C@@H]2COCCO2)c([N+](=O)[O-])c1)c1ccc(C2=CCN(CC3=C(c4ccc(Cl)cc4)CC4(CC3)COC4)CC2)cc1Oc1cnc2[nH]ccc2c1` [Cpd. No. 5, (R)-N-((4-(((1,4-dioxan-2-yl)methyl)amino)-3-nitrophenyl)sulfonyl)-2-((1H-pyrrolo[2,3-b]pyridin-5-yl)oxy)-4-(1-((6-(4-chlorophenyl)-2-oxaspiro[3.5]non-6-en-7-yl)methyl)-1,2,3,6-tetrahydropyridin-4-yl)benzamide], the IC50 in data set [2] was 0.022 µM.

As to `O=C(NS(=O)(=O)c1ccc(NCC2CCOCC2)c([N+](=O)[O-])c1)c1ccc(N2CCN(CC3=C(c4ccc(Cl)cc4)CC4(CCC4)CC3)CC2)nc1Oc1cnc2[nH]ccc2c1` [compound 32, 2-((1H-pyrrolo[2,3-b]pyridin-5-yl)oxy)-6-(4-((6-(4-chlorophenyl)spiro[3.5]non-6-en-7-yl)methyl)piperazin-1-yl)-N-((3-nitro-4-(((tetrahydro-2H-pyran-4-yl)methyl)amino)phenyl)sulfonyl)nicotinamide], the IC50 in data set [2] stood at 1.38 µM.

In the case of `CC1(C)CCC(CN2CCN(c3ccc(C(=O)NS(=O)(=O)c4ccc(NCC5CCOCC5)c([N+](=O)[O-])c4)c(Oc4cnc5[nH]ccc5c4)c3)CC2)=C(c2ccc(Cl)cc2)C1` [ABT-199, Venetoclax, reference compound], the “AUC0-∞ IV” value in data set [3] (IV 2 mg/kg) was determined as 5446 n · gh/mL. The “AUC0-∞ PO” value in data set [3] (oral 20 mg/kg) is reported as 20812 n · gh/mL. Further, the “F(AUC0-t)” value in data set [3] (oral 20 mg/kg vs IV 2 mg/kg) amounted to 38.2%. For the same compound, in data set [3] (rat, in vivo, IV 2 mg/kg), the MRT inf was 1.23 h. Also, the AUC(0-t) in data set [3] (rat, in vivo, IV 2 mg/kg, read-out: AUC0-t IV) was 5440 ng·h/mL; in data set [3] (rat, in vivo, oral 20 mg/kg, read-out: AUC0-t PO), 20800 ng·h/mL. The clearance in data set [3] (rat, in vivo, IV 2 mg/kg, read-out: CL (iv) (converted)) was 6.57 mL/min/kg. The Cmax is 8740 ng/mL in data set [3] (rat, in vivo, IV 2 mg/kg, read-out: Cmax IV) and 6000 ng/mL in data set [3] (rat, in vivo, oral 20 mg/kg, read-out: Cmax PO). The time of peak concentration (Tmax) is 0.083 h in data set [3] (rat, in vivo, IV 2 mg/kg, read-out: Tmax IV) and 1.67 h in data set [3] (rat, in vivo, oral 20 mg/kg, read-out: Tmax PO). Also, in data set [3] (rat, in vivo, IV 2 mg/kg, read-out: Vss (iv)), the Vd is 0.496 L/kg. Besides, the half-life in data set [3] (rat, in vivo, IV 2 mg/kg, read-out: t1/2 IV (converted)) was 4.32 h; in data set [3] (rat, in vivo, oral 20 mg/kg, read-out: t1/2 PO (converted)) it was 3.22 h.

The values are drawn from patent publication US10221174B2, “N-(phenylsulfonyl)benzamides and related compounds as BCL-2 inhibitors” (THE REGENTS OF THE UNIVERSITY OF MICHIGAN, priority 2016, dated 2019).
